Data published in PubChem BioAssay AID1241 (SRMLSC, 2008).

Assay: compounds inducing NF-kB luciferase expression – cell-based, SH-SY5Y, dose response (AID 1241)
Details: SH-SY5Y NF-kB promoter luciferase reporter, fold induction; call rule not given here

EC50, active:
COc1ccc(-n2nc3cc(C)c(N)c(Br)c3n2)cc1 1440 nM
CSc1ccc(C(=O)/C=C/c2ccc(N)cc2)cc1 3840 nM
Clc1ccc(-c2nnc(-c3ccccc3Cl)o2)cc1 2360 nM
Fc1ccccc1CSc1nc2ccccc2[nH]1 3190 nM
O=C1C(C=Nc2ccc(F)cc2)=C(O)c2ccccc21 2410 nM
Cc1ccc(NC(=O)c2noc3c2CCC3)cc1C 3120 nM
O=C(/C=C/Nc1ccc(F)c(F)c1)c1ccc(Br)cc1 3910 nM
COC(=O)Cc1ccc2sc(-c3ccccc3)nc2c1 702 nM
COc1cc2c(cc1NC(=O)C1CCCO1)oc1ccccc12 (configuration not stated) 5780 nM
Cn1c(-c2ccco2)nc2cc3ccccc3cc21 816 nM
Oc1ccc(-c2cn3cc(C(F)(F)F)ccc3n2)cc1 1190 nM
COc1cccc(-c2cc(C(=O)Nc3cccc(O)c3)no2)c1 498 nM
Oc1c(C(Nc2ccccn2)c2ccccn2)ccc2cccnc12 (configuration not stated) 3990 nM
COCCNC(=O)/C(C#N)=C/c1cc(C)n(-c2ccc(C)cc2)c1C 5600 nM
COc1ccc(NC(=O)c2nc3ccccc3s2)cc1 461 nM
CCC(=O)Nc1ccc2oc(-c3ccccc3Br)nc2c1 2640 nM
CN(C)S(=O)(=O)Oc1cccc(C(=O)Nc2ccc(Cl)cc2)c1 8780 nM
COc1ccc(/C=C/c2nc3ccccc3n2Cc2ccccc2OC)cc1 4980 nM
O=C(Nc1nc2ccc(Cl)cc2s1)c1ccco1 1190 nM
COc1ccc2nc(SCC(C)=O)c(C#N)cc2c1 1900 nM
Cc1ccc(C(=O)Nc2ccc(Cl)cn2)cc1 17300 nM
Cc1ccc(NC(=O)c2scc3c2CCCC3)cc1 714 nM
CN1/C(=C/C(=O)c2cccs2)Sc2ccccc21 685 nM
Cc1ccc(/C=N/Nc2nnc(Cl)c3ccccc23)cc1 1530 nM
CC(/C=N/NC(=O)c1ccco1)=C\c1ccccc1 4660 nM
O=C(Nc1nc2ccc(F)cc2s1)c1cccs1 4570 nM
Cc1ccc(NC(=O)COc2ccccc2C=O)cc1Cl 3880 nM
Cc1cc(C)cc(NC(=O)c2ccc([N+](=O)[O-])o2)c1 4240 nM
Cn1c(C(=O)Nc2ccc3c(c2)OCCO3)cc2sccc21 1170 nM
C(=N\Nc1nc2ccccc2s1)/c1ccco1 2320 nM
COc1cc(/C=C(/C(=O)c2cccs2)c2nc3ccccc3[nH]2)cc(OC)c1O 7670 nM
CCc1ccc(-c2cn3c(n2)SCC3)cc1 9880 nM
